Reference: PubChem BioAssay (NCI)
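A five-concentration, 48-hour dose response in 96-well plates underlies each endpoint, interpolated linearly between surrounding concentrations. Abbreviation: GI50, concentration required for 50% inhibition of growth. At the TGI there is no net growth.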

Tests used:
Experiment in all cases: inhibition of tumour cell growth, NCI panel, 48 h
SNB-75 CNS = system: SNB-75 CNS
MCF7 breast = system: MCF7 breast
TK-10 renal = system: TK-10 renal
T-47D breast = system: T-47D breast
A498 renal = system: A498 renal
SN12C renal = system: SN12C renal
MALME-3M melanoma = system: MALME-3M melanoma
NCI-H522 lung = system: NCI-H522 lung
786-0 renal = system: 786-0 renal
EKVX NSCLC = system: EKVX NSCLC
OVCAR-8 ovarian = system: OVCAR-8 ovarian
MOLT-4 leukemia = system: MOLT-4 leukemia
MDA-MB-231 breast = system: MDA-MB-231 breast
SW-620 colon = system: SW-620 colon
HT29 colon = system: HT29 colon
OVCAR-3 ovarian = system: OVCAR-3 ovarian
HOP-62 NSCLC = system: HOP-62 NSCLC
HOP-92 NSCLC = system: HOP-92 NSCLC
SK-MEL-5 melanoma = system: SK-MEL-5 melanoma
UACC-62 melanoma = system: UACC-62 melanoma
UACC-257 melanoma = system: UACC-257 melanoma
SF-268 CNS = system: SF-268 CNS
SF-539 CNS = system: SF-539 CNS
SK-MEL-28 melanoma = system: SK-MEL-28 melanoma
HCC-2998 colon = system: HCC-2998 colon
OVCAR-4 ovarian = system: OVCAR-4 ovarian
K-562 leukemia = system: K-562 leukemia
NCI/ADR-RES ovarian = system: NCI/ADR-RES ovarian
U251 CNS = system: U251 CNS
DU-145 prostate = system: DU-145 prostate
SNB-19 CNS = system: SNB-19 CNS
MDA-MB-435 = system: MDA-MB-435
HCT-15 colon = system: HCT-15 colon
OVCAR-5 ovarian = system: OVCAR-5 ovarian
IGROV1 ovarian = system: IGROV1 ovarian
ACHN renal = system: ACHN renal
HS 578T breast = system: HS 578T breast
RPMI-8226 leukemia = system: RPMI-8226 leukemia
KM12 colon = system: KM12 colon
SK-OV-3 ovarian = system: SK-OV-3 ovarian
SK-MEL-2 melanoma = system: SK-MEL-2 melanoma
LOX IMVI melanoma = system: LOX IMVI melanoma
PC-3 prostate = system: PC-3 prostate
NCI-H23 lung = system: NCI-H23 lung
NCI-H226 lung = system: NCI-H226 lung
COLO 205 colon = system: COLO 205 colon
HCT-116 colon = system: HCT-116 colon
A549 NSCLC = system: A549 NSCLC
UO-31 renal = system: UO-31 renal
BT-549 breast = system: BT-549 breast
RXF 393 renal = system: RXF 393 renal
CCRF-CEM leukemia = system: CCRF-CEM leukemia
NCI-H460 lung = system: NCI-H460 lung
M14 melanoma = system: M14 melanoma
CAKI-1 renal = system: CAKI-1 renal

Nc1ccc(-c2ccc(-c3nc4ccccc4[nH]3)cc2)cc1
GI50 (SNB-75 CNS): 27.8 µM
TGI (SNB-75 CNS): 69.4 µM
GI50 (MCF7 breast): 0.765 µM
TGI (MCF7 breast): > 100 µM
TGI (TK-10 renal): > 100 µM
GI50 (T-47D breast): 3.89 µM
TGI (T-47D breast): > 100 µM
GI50 (A498 renal): 33.6 µM
TGI (A498 renal): > 100 µM
GI50 (SN12C renal): 19.6 µM
TGI (SN12C renal): > 100 µM
GI50 (MALME-3M melanoma): 7.19 µM
TGI (MALME-3M melanoma): > 52.7 µM
GI50 (NCI-H522 lung): 1.1 µM
TGI (NCI-H522 lung): > 53.9 µM
GI50 (786-0 renal): 8.78 µM
TGI (786-0 renal): 84.9 µM
GI50 (EKVX NSCLC): 1.47 µM
TGI (EKVX NSCLC): > 78.2 µM
GI50 (OVCAR-8 ovarian): 14.1 µM
TGI (OVCAR-8 ovarian): 97.5 µM
GI50 (MOLT-4 leukemia): 9.94 µM
TGI (MOLT-4 leukemia): > 58.2 µM
GI50 (MDA-MB-231 breast): 29.6 µM
TGI (MDA-MB-231 breast): > 100 µM
GI50 (SW-620 colon): < 0.0506 µM
TGI (SW-620 colon): > 100 µM
GI50 (HT29 colon): 0.606 µM
TGI (HT29 colon): 21.6 µM
GI50 (OVCAR-3 ovarian): 1.2 µM
TGI (OVCAR-3 ovarian): 40.1 µM
GI50 (HOP-62 NSCLC): 3.83 µM
TGI (HOP-62 NSCLC): 56.6 µM
GI50 (HOP-92 NSCLC): 18.6 µM
TGI (HOP-92 NSCLC): 71.2 µM
GI50 (SK-MEL-5 melanoma): 14.9 µM
TGI (SK-MEL-5 melanoma): > 100 µM
GI50 (UACC-62 melanoma): 0.61 µM
TGI (UACC-62 melanoma): 3.61 µM
GI50 (UACC-257 melanoma): 1.11 µM
TGI (UACC-257 melanoma): > 100 µM
GI50 (SF-268 CNS): 2.76 µM
TGI (SF-268 CNS): > 100 µM
GI50 (SF-539 CNS): 0.208 µM
GI50 (SK-MEL-28 melanoma): 2.08 µM
TGI (SK-MEL-28 melanoma): > 100 µM
GI50 (HCC-2998 colon): 0.105 µM
TGI (HCC-2998 colon): 0.438 µM
GI50 (OVCAR-4 ovarian): 21.1 µM
TGI (OVCAR-4 ovarian): 79.9 µM
GI50 (K-562 leukemia): 0.117 µM
TGI (K-562 leukemia): > 100 µM
GI50 (NCI/ADR-RES ovarian): 21.3 µM
TGI (NCI/ADR-RES ovarian): > 76.3 µM
GI50 (U251 CNS): 11.4 µM
TGI (U251 CNS): 44.5 µM
GI50 (DU-145 prostate): 10.6 µM
TGI (DU-145 prostate): > 100 µM
GI50 (SNB-19 CNS): 18.4 µM
TGI (SNB-19 CNS): > 100 µM
GI50 (MDA-MB-435): < 0.0192 µM
TGI (MDA-MB-435): > 100 µM
GI50 (HCT-15 colon): 8.09 µM
TGI (HCT-15 colon): > 100 µM
GI50 (OVCAR-5 ovarian): > 75.9 µM
TGI (OVCAR-5 ovarian): > 100 µM
GI50 (IGROV1 ovarian): 26.2 µM
TGI (IGROV1 ovarian): > 82.4 µM
GI50 (ACHN renal): 13.6 µM
TGI (ACHN renal): > 92.8 µM
GI50 (HS 578T breast): 31.1 µM
TGI (HS 578T breast): > 100 µM
GI50 (RPMI-8226 leukemia): 3.34 µM
TGI (RPMI-8226 leukemia): 39.9 µM
GI50 (KM12 colon): < 0.0248 µM
TGI (KM12 colon): > 66.8 µM
GI50 (SK-OV-3 ovarian): 46 µM
TGI (SK-OV-3 ovarian): > 100 µM
GI50 (SK-MEL-2 melanoma): 1.88 µM
TGI (SK-MEL-2 melanoma): > 100 µM
TGI (LOX IMVI melanoma): > 100 µM
GI50 (PC-3 prostate): 14.1 µM
TGI (PC-3 prostate): 56.8 µM
GI50 (NCI-H23 lung): 10.6 µM
TGI (NCI-H23 lung): > 90.6 µM
GI50 (NCI-H226 lung): 4.26 µM
TGI (NCI-H226 lung): 40.9 µM
GI50 (COLO 205 colon): 0.32 µM
GI50 (HCT-116 colon): 2.45 µM
TGI (HCT-116 colon): > 100 µM
TGI (A549 NSCLC): > 95.5 µM
GI50 (UO-31 renal): 10.5 µM
TGI (UO-31 renal): > 100 µM
GI50 (BT-549 breast): 13.2 µM
TGI (BT-549 breast): > 61.6 µM
GI50 (RXF 393 renal): 23.5 µM
TGI (RXF 393 renal): 82.9 µM
GI50 (CCRF-CEM leukemia): 2.77 µM
TGI (CCRF-CEM leukemia): > 78.7 µM
GI50 (NCI-H460 lung): 0.196 µM
TGI (NCI-H460 lung): > 65.1 µM
GI50 (M14 melanoma): 0.0328 µM
TGI (M14 melanoma): > 100 µM
TGI (CAKI-1 renal): > 54.7 µM
